Test results reported in patent publication US9880171B2, “iASPP phosphorylation and metastatic potential” (LUDWIG INSTITUTE FOR CANCER RESEARCH LTD., priority 2012, dated 2018).
Changes are numbered by the printed parent chain. In names and notes the source's numbering stands.

B1: iASPP(1-240): purified recombinant N-terminal iASPP fragment, amino acids 1-240 of SEQ ID NO: 2, GST tag (protein, listed as Homo sapiens)
chain: MDSEAFQSARDFLDMNFQSLAMKHMDLKQMELDTAAAKVDELTKQLESLWSDSPAPPGPQAGPPSRPPRYSSSSIPEPFGSRGSPRKAATDGADTPFGRSESAPTLHPYSPLSPKGRPSSPRTPLYLQPDAYGSLDRATSPRPRAFDGAGSSLGRAPSPRPGPGPLRQQGPPTPFDFLGRAGSPRGSPLAEGPQAFFPERGPSPRPPATAYDAPASAFGSSLLGSGGSAFAPPLRAQDDL
modifications: GST tag
B2: iASPP(1-240)S84D/S113D: iASPP phosphor-mimic mutant of the N-terminal fragment 1-240 (protein, listed as Homo sapiens)
chain: B1 chain with S84D, S113D

Assays:
Format in all cases: cell-based, human
[1] = test system: slow-migrating iASPP in H1299 cells; assay: induction of slow-migrating iASPP by chemotherapeutic agents in H1299 cells (WB); conditions: H1299, overnight treatment (oxidative stress inducers 1-3 h; EDTA 4 mM 1 hour), antibody LX49.3
Experimental: FIG. 3. […] H1299 cells were treated overnight with the indicated concentrations of mitosis-arrest drugs nocodazole, colchicine and taxol, DNA damaging drugs, or oxidative stress inducers (1-3 h). Total lysate was prepared in UREA buffer, and iASPP expression patterns were determined using antibody LX49.3. […] Mitotic-arrest drugs were applied to H1299 cells to induce iASPP mobility shift. Floating and adherent cells were collected, and iASPP expression pattern was determined by western blotting (WB). C. […] Left panel, cells in mitosis (floating) and interphase (adherent) were collected by mitotic shake-off, and iASPP expression pattern was determined by WB. Right panel, H1299 cells after Taxol treatment, or mitotic shake-off were immunofluorescence stained using antibody LX49.3. In mitotic shake-off experiment, mitotic shake-off cells were cytospun to slides; the remaining adherent cells after shaking were scraped off and used as interphase control. […] Melanoma cells were treated with nocodazole overnight and iASPP expression patterns from total cell lysate was determined by WB.
FIG. 4. A. Floating and adherent H1299 cells separately collected by mitotic shake-off (FIG. 3C) were stained with propidium iodide (PI), followed by FACS analysis. […] B. H1299 cells were subjected to treatment of 10 μM nocodazole for 24 hours (Nocodazole), on ice for 30 minutes (Cold shock), or 4 mM EDTA for 1 hour (EDTA). Left panel: iASPP expression pattern was analysed by immunoblotting. Right panel: phase contrast images were taken before collection of the cells for WB analysis. Bar=20 μm.
For WB, cells were lysed in buffer containing 8 M urea, 1 M thiourea, 0.5% CHAPS, 50 mM DTT, and 24 mM spermine. A total of 40 μg of protein extract was loaded per lane into SDS-polyacrylamide gels. Gels were transferred onto nitrocellulose membrane (Protran) and the resulting blots incubated first with primary antibody overnight at 4° C. and then with the appropriate secondary horseradish peroxidize-conjugated antibody (Dako). The results were visualized by enhanced chemiluminescent detection (Amersham Biosciences) using X-ray film (Fujifilm). For cell lysate immunoprecipitation, cells were dissolved in NP40 buffer (50 mM Tris-HCl pH 8.0, 150 mM NaCl, 1% NP-40) with protease inhibitor cocktail mix (Roche Diagnostics). Cells were further thoroughly broken by ultrasonication, followed by spinning for 1 hour. Achieved suspension was adjusted to 1-2 mg/ml using NP40 buffer and incubated with 20 μl nickel beads, glutathione beads, or protein A beads (with 2 μg required antibody) for 2 h at room temperature. The beads were washed for four times with NP40 buffer, boiled for 5 min in Laemmli sample buffer, and applied for Western blotting. For pure protein immunoprecipitation, 5-10 μg purified proteins were mixed in NP40 buffer with 1 mg/ml BSA for 2 h at room temperature.
As mitotic cells often detach from the tissue culture dish, floating cells were separated from adherent cells after the treatment of Nocodozole, Taxol and Colchicine.

[2] = test system: iASPP modification in H1299 cells; assay: nocodazole-induced iASPP modification in H1299 cells, G2/M kinase inhibitor panel (immunoblotting); conditions: 2-10 μM, 10 μM nocodazole overnight
Experimental: FIG. 12. […] FIG. 12A. […] FIG. 12B. […] FIG. 12C.
FIG. 13. FIG. 13A. […] FIG. 13B.
FIG. 20. […] FIG. 20A. […] Bar=20 μm.
For WB, cells were lysed in buffer containing 8 M urea, 1 M thiourea, 0.5% CHAPS, 50 mM DTT, and 24 mM spermine. A total of 40 μg of protein extract was loaded per lane into SDS-polyacrylamide gels. Gels were transferred onto nitrocellulose membrane (Protran) and the resulting blots incubated first with primary antibody overnight at 4° C. and then with the appropriate secondary horseradish peroxidize-conjugated antibody (Dako). The results were visualized by enhanced chemiluminescent detection (Amersham Biosciences) using X-ray film (Fujifilm).

[3] = test system: nuclear entry of FITC labeled iASPP(625-828); assay: in vitro nuclear import assay in digitonin permeabilized H1299 cells; conditions: for nuclear entry of FITC labeled iASPP(625-828): pre-incubation with 0-1 mg/ml non-labeled protein, 2 hours
Experimental: FIG. 7. S84/S113 phosphorylation of iASPP prevents N- and C-terminal self-interaction and promotes iASPP nuclear localization. A. N- and C-terminal iASPP self-interacts, and iASPP(1-240 of SEQ ID NO: 2)S84D/S113D fails to interact with C-terminal iASPP in vitro. Upper panel: 10 μg/ml purified GST-tagged iASPP (1-240 of SEQ ID NO: 2) or iASPP (249-482 of SEQ ID NO: 2) were incubated with 10 μg/ml purified 6*His-tagged iASPP (625-828 of SEQ ID NO: 2) or ASPP2 (905-1128 of SEQ ID NO: 2) in NP40 buffer for 2 hours. iASPP (1-240 of SEQ ID NO: 2) and iASPP (249-482 of SEQ ID NO: 2) were pulled down by glutathione beads. Bound iASPP (625-828 of SEQ ID NO: 2) and ASPP2 (905-1128 of SEQ ID NO: 2) were determined using anti-His antibodies. Lower panel: 10 μg/ml purified iASPP (1-240 of SEQ ID BO: 2)-GST mutants were incubated with 10 μg/ml mixture of iASPP (625-828 of SEQ ID NO: 2)-His and ASPP2 (905-1128 of SEQ ID NO: 2)-His in NP40 buffer for 2 hours. Interaction was determined as above. […] Cells were suspended in NP40 buffer, and interactions between overexpressed iASPP(1-478 of SEQ ID NO: 2)-V5 and purified iASPP(625-828 of SEQ ID NO: 2)-His were determined by co-immunoprecipitation. […] Cells were suspended in NP40 buffer, and interaction between endogenous iASPP and iASPP (1-240 of SEQ ID NO: 2)-GST was determined by co-immunoprecipitation. […] Upper right panel: H1299 cells were treated with or without nocodazole and iASPP mobility shift were determined in non-denaturing or denaturing WB. […] After 4 washes, the interaction between them was determined by co-immunoprecipitation using anti-GST and anti-V5 antibodies. […] Nuclear iASPP (625-828 of SEQ ID NO: 2)-FITC was determined by direct FITC fluorescence. iASPP(1-240)S84D/S113D and ASPP2(905-1128 of SEQ ID NO: 2) were used as control. […]
Purified proteins were labeled with FITC according to protocol from protein label kit (F-6434, Invitrogen). […] The cellular localization of the substrate was determined by direct fluorescence observation under confocol microscope. […]

Molecule	induction of slow-migrating iASPP isoform [1]	other results
N.N.[Cl][Pt][Cl] [Cisplatin]	did not result in increased slow-migrating iASPP isoform expression	
COc1cc2c(c(OC)c1OC)-c1ccc(OC)c(=O)cc1[C@@H](NC(C)=O)CC2 [Colchicine]	induced	
COc1cccc2c1C(=O)c1c(O)c3c(c(O)c1C2=O)C[C@@](O)(C(=O)CO)C[C@@H]3O[C@H]1C[C@H](N)[C@H](O)[C@H](C)O1 [Doxorubicin]	did not result in increased slow-migrating iASPP isoform expression	
O=C(O)CN(CCN(CC(=O)O)CC(=O)O)CC(=O)O [EDTA]	failed to affect iASPP mobility	
CN[C@@H]1C[C@H]2O[C@@](C)([C@@H]1OC)n1c3ccccc3c3c4c(c5c6ccccc6n2c5c31)C(=O)NC4 [Staurosporine]	did not result in increased slow-migrating iASPP isoform expression	
CC(=O)O[C@H]1C(=O)[C@@]2(C)[C@H]([C@H](OC(=O)c3ccccc3)[C@]3(O)C[C@H](OC(=O)[C@H](O)[C@@H](NC(=O)c4ccccc4)c4ccccc4)C(C)=C1C3(C)C)[C@]1(OC(C)=O)CO[C@@H]1C[C@@H]2O [Taxol]	induced	
OO [hydrogen peroxide]	did not result in increased slow-migrating iASPP isoform expression	
CC[C@H](CO)Nc1nc(NCc2ccccc2)c2ncn(C(C)C)c2n1 [roscovitine]		prevention of nocodazole-induced iASPP modification ([2]; panel of 15 G2/M kinase inhibitors): only weakly affected iASPP modification; prevention of nocodazole-induced iASPP modification ([2]; panel of 18 G2/M kinase inhibitors): failed to affect iASPP modification
B1		nuclear entry of FITC labeled iASPP(625-828) [3]: effectively prevented the nuclear entry; nuclear entry of ASPP2(905-1128) ([3]; pre-incubation with non-labeled protein): no impact on the nuclear entry of ASPP2(905-1128)
B2		nuclear entry of FITC labeled iASPP(625-828) [3]: failed to have any impact
